{
  "source": "patent US11345650B1",
  "about": "“Methods and systems for crystallizing and isolating individual cannabinoids” (MYKU Biosciences LLC, priority 2021, dated 2022)",
  "experiment": "Minimum concentration of CBD required for crystallization from solution",
  "type": "physicochemical",
  "description": "The minimum concentration of CBD required for selective crystallization from a solution containing a plurality of cannabinoids was evaluated.\nThe CBD-rich solution shown in Table A7 was diluted in MCT coconut oil to the aforementioned CBD concentrations. The samples were heated to 60° C. for about five minutes. Then, each solution was subjected to the following nucleation factors: agitation (intense stirring), cold shock (cooling solution to −20° C. and mixing), introduction of a CBD seed crystal, and exposure to a vacuum at a pressure of −25 inHg). Photographs of the crystallized cannabinoids were taken after 24 hours.\nThe experiment was also repeated using mixtures of cannabinoid CBD and THCa isolates in oleic acid.",
  "data": [
    {"compound": "C=C(C)[C@@H]1CCC(C)=C[C@H]1c1c(O)cc(CCCCC)cc1O", "note": "[CBD, Cannabidiol]", "values": [
      {"measurement": "lowest tested concentration of CBD that exhibited crystallization", "setting": "CBD-rich solution with a plurality of cannabinoids diluted in MCT coconut oil, heated to 60° C., agitation, cold shock −20° C., seed crystal, vacuum −25 inHg, after 24 hours", "value": 19.6, "unit": "%"},
      {"measurement": "lowest tested concentration of CBD that crystallized", "setting": "mixtures of CBD and THCa isolates in oleic acid (FIG. 16: 24% CBD, 1% THCA, 75% oleic acid)", "value": 24, "unit": "%"}
    ]}
  ]
}
